Patent US10881642B2, “Autophagy enhancer and use thereof” (Industry-Academic Cooperation Foundation, Yonsei University, priority 2016, dated 2021)

How the values were obtained:
HFD-fed hIAPP+ mice = experiment: Metabolic profile and islet amyloid of HFD-fed hIAPP+ mice; format: in vivo
Method: (FIG. 13A) INS-1 cells transfected with non-amyloidogenic prepro-mIAPP-HA or amyloidogenic prepro-hIAPP-HA construct were treated with MSL or MSL-7 followed by western blot analysis using anti-HA antibody. (FIG. 13B) the transfected cells of (FIG. 13A) were treated with MSL-7 in the presence or absence of bafilomycin followed by western blot analysis using anti-HA antibody. (FIG. 13C) The transfected cells were treated with MSL-7 in the presence or absence of 3-MA, after which the amount of […] contained in the cell lysates were measured. (FIG. 13D) HFD-fed hIAPP+ mice were administered with MSL-7, and non-fasting glucose level was monitored. (FIG. 13E) IPGTT. (FIG. 13F) HFD-fed hIAPP+ mice were administered with MSL-7 for 8 weeks and the insulinogenic index was measured. (FIG. 13G) HFD-fed hIAPP+ mice were administered with MSL-7 for 8 weeks and the pancreatic section was obtained. All antibody was used for immunohistochemistry (left). The percentage of A11-[…] cells among DAPI+ cells (right). (FIG. 13H) FSB stained pancreatic section of HFD-fed hIAPP+ mice administered with MSL-7 for 8 weeks (left). Average fluorescence intensity/area (right).
Screening of autophagy enhancer. […] Luciferase assay. Firefly and Renilla luciferase assays were conducted using the Dual-Luciferase Reporter Assay System (Promega) according to the manufacturer's recommendation. In brief, cells were lysed in 1× lysis buffer and subjected to a single round of freezing/thawing. Firefly luciferase was determined after mixing 5 μl of lysate with 25 μl of Luciferase Assay Reagent II. Renilla luciferase was then determined after further addition of 20 ul of Stop&Glo Reagent. Cell culture and media and drugs treatment. HeLa, TFEB-GFP-HeLa, SK-HEP1 (hepatoma cell line) and Hepa1c1c7 (hepatoma cell line) cells were cultured in the following media: (normal) Dulbecco's modified Eagle's medium (DMEM, Sigma-Aldrich) supplemented with 10% FBS and 1% penicillin/streptomycin; (starvation) HBSS media with Ca and Mg supplemented with 10 mM HEPES; Drugs treatment: MSL compound (50-100 μM); Rapamycin ([…]); Torin-1 (1 μM); Bafilomycin (100 nM); Cyclosporin A (10 μM); and FK506 (5 μM). Cells were treated with oleic acid (400 μM) and palmitic acid (400 μM) for 24 h. Where indicated, cells were washed off with HBSS and replaced by DMEM with or without MSL for 16 h. INS-1 cells, a insulinoma cell line of […] were cultured as described previously (Kim et al., 2014 ibid) in the presence or absence of bafilomycin and treated with MSL-7. Lactate dehydrogenase (LDH) assay. Cytotoxicity was determined by the measurement of LDH release in cell culture media using the LDH kit (Roche), according to the protocol from the manufacturer. Transfection and plasmids. Cells were transiently transfected with DNA plasmids 3×FLAG-hTFEB (A Ballabio), FYVE-dsRed (Cantley LC), RFP-LC3 or mRFP-GFP-LC3 using lipofectamine 2000 (Invitrogen) according to the protocol from the manufacturer. […] Imaging and image quantification. […] Formation of acidic vesicular organelles was quantitated by staining the cells with acridine orange (Invitrogen, 5 ug/ml, 10 min). […] Cells or tissues were solubilized in lysis buffer supplemented with protease and phosphatase inhibitors and protein concentration was measured by the Bradford method. Ten to 30 micrograms were loaded on 4-12% Bis-Tris gel (NUPAGE, Invitrogen) or 8-15% SDS-PAGE, transferred to PVDF membranes and analyzed by western blot using the ECL method (Pierce). […]

[1] = system: primary peritoneal macrophages; experiment: Mitochondrial ROS (MitoSOX) and potential (MitoTracker) by FACS; format: cell-based, C57BL/6 mice; conditions: PA plus LPS

Question: What does the source list for `COc1oc(-c2ccccc2Cl)nc1S(=O)(=O)c1ccccc1` [MSL-7, 2-(2-chlorophenyl)-5-methoxy-4-(phenylsulfonyl) oxazole]?
Answer: non-fasting glucose level (HFD-fed hIAPP+ mice): significantly reduced; FSB-stained pancreatic islet amyloid (HFD-fed hIAPP+ mice; 8-week administration): similarly reduced; accumulation of hIAPP oligomer (A11 antibody) (HFD-fed hIAPP+ mice; 8-week administration): significantly reduced; Glucose intolerance (IPGTT) (HFD-fed hIAPP+ mice; 8 week treatment): significantly improved; insulinogenic index (HFD-fed hIAPP+ mice; 8 week treatment): significantly improved

Question: For `CSc1oc(-c2ccccc2)nc1S(=O)(=O)c1ccc(F)cc1` [MSL], which “mitochondrial ROS content (MitoSox)” value [1] is on record?
Answer: Its value is “significantly reduced”.

Question: What about the “mitochondrial potential (MitoTracker Red)” value [1] of the same molecule?
Answer: The value was “significantly reduced”.
